Measurements as given in patent US20260132123A1, “ABAD INHIBITOR COMPOUNDS” (UNIVERSITY COURT OF THE UNIVERSITY OF ST ANDREWS, priority 2021, published 2026).

Molecular target: T1, 17β-HSD10 (Homo sapiens, UniProt Q99714)
T1 construct: Histev (histidine tag with TEV site) (N, cleaved yes); made in house; host or cells: E. coli BL21-CodonPlus
T1 sequence (Q99714 1-261): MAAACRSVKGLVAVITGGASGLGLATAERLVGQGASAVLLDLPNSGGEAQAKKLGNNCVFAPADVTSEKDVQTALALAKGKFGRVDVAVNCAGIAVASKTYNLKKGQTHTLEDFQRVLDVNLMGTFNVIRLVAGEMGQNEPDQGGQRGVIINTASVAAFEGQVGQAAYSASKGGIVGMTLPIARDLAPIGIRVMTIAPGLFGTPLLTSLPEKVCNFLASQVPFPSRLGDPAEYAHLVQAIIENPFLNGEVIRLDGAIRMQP
Experiment: 17β-HSD10 (ABAD) enzyme inhibition assay, NADH oxidation read at 340 nm (primary screen and dose response)
Type: biochemical
Settings: for EC50 / Max. Effect (%) / Hill Slope / Max. Fit / Min. Fit: recombinant 17βHSD10 enzyme assay; for Hill Slope / Max. Fit / Min. Fit: curve fit
Procedure, shortened: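 Screening used a 35 min room-temperature endpoint A340 read after compound (10 μM) and enzyme (2.5 nM, E. coli-expressed, His-tag removed) preincubated 15 min, then 100 μM NADH plus acetoacetyl-CoA added. Dose-response runs tracked absorbance kinetically 45 min; buffer pH 7.4 Tris with BSA, DTT.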

EC50 [µM]	Max. Effect (%)	Hill Slope	Max. Fit	Min. Fit	17β-HSD10 / ABAD activity in words (SAR discussion)	Compound	ABAD plC50 (primary screening, resynthesized HTS hit compounds)
> 20	9.1					O=C(c1cccnc1)N1CCC[C@H]1c1ccccc1 [S1−T12, 3-{[(2S)-2-phenylpyrrolidin-1-yl]carbonyl}pyridine]	
> 20	21					COc1cccc(-c2ccccc2[C@@H]2CCCN2C(=O)C(C)C)c1 (racemic) [ESC1002603]	
> 20	6				significantly less active	COc1cccc(-c2ccccc2[C@H]2CCCN2C(=O)c2snnc2C)c1 [ESC1002429]	
> 20	17.5					O=C(c1[nH]ncc1Cl)N1CCC[C@H]1c1ccccn1 [S1−T17, 2-[(2S)-1-[(4-chloro-1H-pyrazol-5-yl)carbonyl]pyrrolidin-2-yl]pyridine]	
0.17	98	1.1	97	−4		O=C(c1sccc1Cl)N1CCC[C@H]1c1ccccc1-c1cccc(O)c1F (single isomer, unassigned) [ESC1002840]	
> 20	18.4					CCN(C(=O)c1cccc(F)c1)c1cccc(N(C)Cc2cnc[nH]2)c1 [S2−T5, N-ethyl-3-fluoro-N-[3-[1H-imidazol-5-ylmethyl(methyl)amino]phenyl]benzamide]	
> 20	1				lost all activity	COc1cccc(-c2ccccc2[C@@H]2CCCN2Cc2sccc2F)c1 (racemic) [ESC1002695]	
0.447	95	1.4	94	−4		CC(C)CN(C(=O)c1ccccc1Cl)c1cccc(N(C)Cc2c[nH]cn2)c1 [ESC1002457, 2-chloro-N-[3-[1H-imidazol-4-ylmethyl(methyl)amino]phenyl]-N-isobutyl-benzamide]	
> 20	4					CC(C)CN(C(=O)c1ccccc1F)c1cccc(-n2cnnc2)c1 [ESC1002764]	
> 20	48					CC(C)CN(C(=O)c1ccccc1F)c1cccc(N(C)CC(N)=O)c1 [ESC1002570]	
> 20	12					COc1cccc(-c2ccccc2[C@H]2CCCN2C(=O)C2CCOCC2)c1 [ESC1002435]	
	11					Cc1ccsc1C(=O)N1CCC[C@H]1c1ccccc1-c1cccc(C(F)(F)F)c1 (racemic) [ESC1002789]	
0.234	99	1.4	98	6		Cc1ccsc1C(=O)N1CCC[C@@H]1c1ccccc1-c1ccccc1 [ESC1002462]	
0.562	93	1.6	90	1		Cc1ccsc1C(=O)N1CCC[C@@H]1c1ccccc1-c1ccc(C2CC2)cc1 [ESC1002422]	
0.933	96	1.3	96	2		Cc1ccsc1C(=O)N1CCC[C@@H]1c1ccccc1-c1cnn(C)c1 [ESC1002424]	
> 20	8					CC(C)CN(C(=O)c1ccccc1F)c1cccc(NCc2nc[nH]n2)c1 [ESC1002763]	

EC50 [µM]	Max. Effect (%)	Hill Slope	Max. Fit	Min. Fit	17β-HSD10 / ABAD activity in words (SAR discussion)	Compound	ABAD plC50 (primary screening, resynthesized HTS hit compounds)
> 20	27					O=C(c1sccc1Cl)N1CCC[C@H]1c1ccccc1-c1cccc(O)c1F (single isomer, unassigned) [ESC1002841]	
> 20						Cc1ccsc1C(=O)N1CCC[C@H]1c1ccccc1-c1cccc(C(F)(F)F)c1 (single isomer, unassigned) [ESC1002789]	
> 20	4					CN(Cc1cnc[nH]1)c1cccc(NC(=O)c2ccccc2F)c1 [ESC1002056, 2-fluoro-N-[3-[1H-imidazol-5-ylmethyl(methyl)amino]phenyl]benzamide]	
0.661						Cc1ccsc1C(=O)N1CCC[C@H]1c1ccccc1-c1cccc(C(F)(F)F)c1 (single isomer, unassigned) [ESC1002790]	
4.37	75	1.2	86	1		COc1cccc(-c2ccccc2[C@@H]2CCCN2C(=O)c2ncc[nH]2)c1 (racemic) [ESC1002600]	
3.98	89	1.2	101	2		COc1ccc(-c2ccc(-c3cn[nH]c3)s2)c(OC)c1OC [ESC1002024, 4-[5-(2,3,4-trimethoxyphenyl)-2-thienyl]-1H-pyrazole]	
> 20	2					CN(Cc1cnc[nH]1)c1ccc2c(c1)N(C(=O)c1ccccc1F)CCC2 [ESC1002083, (2-fluorophenyl)-[7-[1H-imidazol-5-ylmethyl(methyl)amino]-3,4-dihydro-2H-quinolin-1-yl]methanone]	
0.977	96	1.5	95	1		COc1cccc(-c2ccccc2[C@H]2CCCN2C(=O)c2sccc2F)c1 [ESC1002431]	
	93	1.2	93	−1		Cc1ccsc1C(=O)N1CCC[C@H]1c1ccccc1-c1cccc(C(F)(F)F)c1 (racemic) [ESC1002790]	
> 20	27.5					O=C(c1ccon1)N1CCC[C@H]1c1ccccc1 [S1−T5, 3-{[(2S)-2-phenylpyrrolidin-1-yl]carbonyl}-1,2-oxazole]	
> 20	22.3					O=C(c1ccncc1)N1CCC[C@H]1c1ccccc1 [S1−T13, 4-{[(2S)-2-phenylpyrrolidin-1-yl]carbonyl}pyridine]	
> 20	20.3					CCN(C(=O)c1ccccn1)c1cccc(N(C)Cc2cnc[nH]2)c1 [S2−T3, N-ethyl-N-[3-[1H-imidazol-5-ylmethyl(methyl)amino]phenyl]pyridine-2-carboxamide]	
> 20	30					CC(C)CN(C(=O)c1ccc[nH]c1=O)c1cccc(N(C)Cc2c[nH]cn2)c1 [ESC1002614, N-[3-[1H-imidazol-4-ylmethyl(methyl)amino]phenyl]-N-isobutyl-2-oxo-1H-pyridine-3-carboxamide]	
1	95	1.1	99	2		Cc1ccc(C(=O)N(CC2CC2)c2cccc(N(C)Cc3c[nH]cn3)c2)cc1 [ESC1002399, N-(cyclopropylmethyl)-N-[3-[1H-imidazol-4-ylmethyl(methyl)amino]phenyl]-4-methyl-benzamide]	
2	92	0.87	106	−1		CN(Cc1c[nH]cn1)c1cccc(N(CC(C)(C)C)C(=O)c2ccccc2F)c1 [ESC1002517, N-(2,2-dimethylpropyl)-2-fluoro-N-[3-[1H-imidazol-4-ylmethyl(methyl)amino]phenyl]benzamide]	

Compound	EC50 [µM]	Max. Effect (%)	Hill Slope	Max. Fit	Min. Fit	17β-HSD10 / ABAD activity in words (SAR discussion)	ABAD plC50 (primary screening, resynthesized HTS hit compounds)
Cc1ccc(C(=O)N(CC(C)C)c2cccc(N(C)Cc3cnc[nH]3)c2)cc1 [ESC1002032, N-[3-[1H-imidazol-5-ylmethyl(methyl)amino]phenyl]-N-isobutyl-4-methyl-benzamide]	0.251	99	0.9	99	0		6.6
